Paper PMC4481774, “Discovery of a non-cationic cell penetrating peptide derived from membrane-interacting human proteins and its potential as a protein delivery carrier” (Scientific Reports, 2015)
Read-outs that look alike come from different tables or passages of the source. Where no end group is shown, it is not given here. The star is where a group is joined. FITC = O=C1OC2(c3ccc(O)cc3Oc3cc(O)ccc32)c2ccc(NC(=S)*)cc21

How the values were obtained:
[1] = Liposome experiment (interaction of FITC-labeled AA3H with phospholipid liposomes); assay type: binding; conditions: liposomes in HBS pH 7.5, 4 h at room temperature, flow cytometric analysis (Supplementary Fig. S3)
Procedure: Liposome experiment. Phospholipids dissolved in chloroform (L-alpha-phosphatidylcholine: PC, L-alpha-phosphatidylserine: PS, and L-alpha-phosphatidylethanolamine: PE) were purchased 1 from Avanti Polar Lipids. Liposomes were prepared by following a reported procedure . After preparation of phospholipid mixtures with appropriate molar ratios (PC/PS: 8/2 and PC/PE/PS: 4/4/2), the mixtures were dried by removing the solvent. The residues were dissolved in HBS (20 mM HEPES/NaOH, pH 7.5, 100 mM NaCl, 0.02% (w/v) sodium azide) and vortexed to completely resuspend phospholipids. Then, the suspension was sonicated until to have clear solution. The prepared vesicles was incubated with AA3H-CPP (FITC labelled) for 4 h at room temperature and the mixture was centrifuged at 16,000×g for 10 min at 4°C before flow cytometric analysis.
Supplementary Fig. S3. (A) Sizes of liposomes determined by dynamic light scattering. (B) Flow cytometric analysis on the interaction between FITC-labeled AA3H and liposomes. […]

HeLa cells [2] = experiment: Intracellular uptake of CPPs in the presence or absence of serum, flow cytometry; assay type: cell-based, Human; conditions: peptide 1 μM, with or without 10% mouse serum, 4 h
Procedure: Samples were prepared as described for cellular uptake above.

cells [3] = experiment: Uptake kinetics (half-time of internalization); assay type: cell-based; conditions: uptake kinetics of AA3H
HeLa cells [4] = experiment: Cellular uptake mechanism of AA3H (heparin, low temperature, endocytosis inhibitors), flow cytometry; assay type: cell-based, Human
Procedure: (§1) For assessing the uptake of CPP candidates by HeLa cells, cells were seeded onto 6-well plates (1.0 × 10^6 cells/well). After 24 h, cells were washed two times with serum-free DMEM and incubated with CPPs at indicated concentrations (0.1, 1, 10 μM) in serum-containing DMEM at 37 °C. Cells were washed two times with phosphate-buffered saline (PBS), incubated in trypsin-EDTA solution (0.01% trypsin) at 37 °C for 10 min to digest extracellular proteins, washed two times with ice-cold PBS, and finally resuspended in 500 μL of ice-cold PBS for flow cytometry assays. For endocytosis inhibitor treatments, cells were pre-incubated with various inhibitors (50 μg heparin, 50 μM CPZ, 100 μM CQ, 1 mM MβCD, 30 μg dynasore, or 50 μM EIPA) in serum-containing medium for 30 min before AA3H (1 μM) was added. The sample for flow cytometry analysis was prepared as described above. For the analysis of peptide internalization, a GUAVA flow cytometry system (Merck Millipore, Darmstadt, Germany) with the FL-1 channel for measuring fluorescence in GuavaSoft 2.6 was used according to the manufacturer’s instructions.

HeLa cells [5] = experiment: Cellular uptake of FITC-labeled CPPs by flow cytometry; assay type: cell-based, Human; conditions: for order of potency in intracellular translocation (dose-dependent uptake): 0, 0.5, 1, 2.5, 5 and 10 μM; for order of potency in intracellular translocation (dose-dependent uptake) / cellular uptake efficiency: average of three independent experiments; for cellular uptake efficiency: 1 μM peptide, flow cytometry MFI, serum-containing DMEM, 37 °C
Procedure: as §1, with “After 24 h, cells were washed two times with serum-free DMEM and incubated with CPPs at indicated concentrations (0.1, 1, 10 μM) in serum-containing DMEM at 37 °C.” left out

HeLa cells [6] = experiment: Subcellular localization by confocal fluorescence microscopy; assay type: cell-based, Human; conditions: AA3H 1 μM, 4 h, organelle-specific staining
Procedure: To visualize the cellular uptake of a peptide using confocal fluorescence microscopy, HeLa cells were seeded onto confocal bottom dish 35-mm plates (SPL, Gyeonggi-do, Korea) and incubated with AA3H (1 μM) for 4 h. Lysosomes and nuclei of AA3H-treated cells were stained with LysoTracker (Life Technologies, Carlsbad, CA, USA; 1 μg/mL for 30 min) and Hoechst (1 μg/mL for 5 min), respectively. For staining ER and Golgi, CellLight Reagents BacMam 2.0 (Life Technologies, Carlsbad, CA, USA) were used. Cells were cultured in confocal dishes for 24 h, transfected with red fluorescence protein (RFP) for 24 h, and treated with AA3H (1 μM) for 4 h. After washing two times with PBS, the intracellular fluorescence of HeLa cells was imaged using confocal laser scanning microscopy (LSM 700, Carl Zeiss, Jena, Germany).

cells [7] = conditions: uptake kinetics of TAT; cited from earlier work
Raw 264.7 cells = experiment: Immunogenicity assay (IL-6 release, ELISA); assay type: cell-based, Murine; conditions: 24 h; AA3H 10 μM or LPS 10 μg/mL; mouse IL-6 ELISA; average of three; non-treated control 20 pg/mL
Procedure: Raw 264.7 cells were seeded into 24-well plates and cultured for 24 h. Cells were grown to 80% confluence and treated with lipopolysaccharides (LPS, 10 μg/mL) as a positive control. After incubation of AA3H peptide (10 μM) with cells for 24 h, supernatants were transferred to 1.5 mL tubes and centrifuged at 10,000 × g for 10 min at 4 °C. For the detection of interleukin-6 (IL-6) a mouse IL-6 ELISA kit (Thermo Scientific, Waltham, MA, USA) was used. Results from triplicate experiments were analyzed by Prism software (GraphPad, La Jolla, CA, USA). Data are presented as mean ± standard deviation (SD).

{FITC}-MASIWVGHRG [AA3H]
binding to phospholipids known to interact with annexin III [1]: found to also bind AA3H | delivery efficiency in the presence of serum (HeLa cells [2]): not considerably affected | t0.5 (half-time of internalization) (cells [3]): ~ 2 h | decrease of intracellular delivery after heparin sulfate (HeLa cells [4]; 50 μg/mL heparin sulfate 30 min pre-treatment, then AA3H 4 h, relative to delivery without heparin, average of three): 45% | cellular uptake at 4 °C lower than at 37 °C (HeLa cells [4]; 4 °C for 2 h vs 37 °C control, flow cytometry): approximately 66% | decrease of uptake with dynasore (HeLa cells [4]; 30-min pre-treatment, 30 μg dynasore, AA3H 1 μM): 57% | decrease in uptake with chlorpromazine (CPZ) (HeLa cells [4]; 30-min pre-treatment, 50 μM CPZ, AA3H 1 μM, serum-containing medium): 23.5% | effect of EIPA (macropinocytosis inhibitor) on peptide delivery (HeLa cells [4]; 30-min pre-treatment, 50 μM EIPA, AA3H 1 μM): significant inhibition of peptide delivery | increase in mean fluorescence intensity with chloroquine (CQ) (HeLa cells [4]; 30-min pre-treatment, 100 μM CQ, AA3H 1 μM, ascribed to dequenching of fluorescein, not to uptake): 20.5% | reduction of uptake with methyl-β-cyclodextrin (MβCD) (HeLa cells [4]; 30-min pre-treatment, 1 mM MβCD, AA3H 1 μM): 32% | reduction of uptake with nystatin (NYS) (HeLa cells [4]; 30-min pre-treatment, AA3H 1 μM): 15% | order of potency in intracellular translocation (dose-dependent uptake) (HeLa cells [5]; HeLa cells, flow cytometry): AA3H > AA5H > AA8H > AA13H > AA4H | cellular uptake efficiency (HeLa cells [5]; HeLa cells): significant cellular uptake efficiency | cellular uptake compared with the fully cationic R9 peptide (HeLa cells [5]; HeLa cells (Supplementary Fig. S1A)): much lower cellular uptake | uptake efficiency compared with TAT (HeLa cells [5]; HeLa cells, flow cytometry (Fig. 2C)): delivered into the cells better than TAT | subcellular localization (HeLa cells [6]): localized in the cytoplasm but not in the nucleus

{FITC}-MATKGGTVKA [AA4H, FITC-labeled N-terminus peptide of an annexin A isoform]
order of potency in intracellular translocation (dose-dependent uptake) (HeLa cells [5]; HeLa cells, flow cytometry): AA3H > AA5H > AA8H > AA13H > AA4H | cellular uptake efficiency (HeLa cells [5]; HeLa cells): significant cellular uptake efficiency

{FITC}-MAQVLRGTVT [AA5H, FITC-labeled N-terminus peptide of an annexin A isoform]
order of potency in intracellular translocation (dose-dependent uptake) (HeLa cells [5]; HeLa cells, flow cytometry): AA3H > AA5H > AA8H > AA13H > AA4H | cellular uptake efficiency (HeLa cells [5]; HeLa cells): significant cellular uptake efficiency

{FITC}-RRRQQQQQQRRR [PLP, protein linking peptide containing multiple arginine residues, FITC-labeled]
cellular uptake of PLP-conjugated CPPs (HeLa cells [5]; flow cytometry, fluorescence label of the peptide (Fig. 8B)): not as high as with AA3H conjugation

{FITC}-MAWWKSWIEQ [AA8H, FITC-labeled N-terminus peptide of an annexin A isoform]
order of potency in intracellular translocation (dose-dependent uptake) (HeLa cells [5]; HeLa cells, flow cytometry): AA3H > AA5H > AA8H > AA13H > AA4H | cellular uptake efficiency (HeLa cells [5]; HeLa cells): significant cellular uptake efficiency

{FITC}-MGNRHAKASS [AA13H, FITC-labeled N-terminus peptide of an annexin A isoform]
order of potency in intracellular translocation (dose-dependent uptake) (HeLa cells [5]; HeLa cells, flow cytometry): AA3H > AA5H > AA8H > AA13H > AA4H | cellular uptake efficiency (HeLa cells [5]; HeLa cells): significant cellular uptake efficiency

FITC-YGRKKRRQRRR [TAT47-58, widely used conventional CPP, TAT peptide of human immunodeficiency virus, FITC-labeled, reference compound]
delivery efficiency in the presence of serum (HeLa cells [2]): significantly lowered efficiency | t0.5 (half-time of internalization) (cells [7]): 1 min

lipopolysaccharide [LPS]
IL-6 released into the culture medium (Raw 264.7 cells): 373 pg/mL
